Test: molar heat capacity at constant pressure; xn = mol fraction of the nth substance listed
Conditions: 101 kPa, Liquid, Small sample (50 mg) DSC

ClCCCCCCl [1,5-dichloropentane] + CCCCCCCCCCCC
molar heat capacity at constant pressure [J/K/mol]
Conditions	283.15 K	288.15 K	293.15 K	298.15 K	303.15 K	308.15 K	313.15 K	318.15 K	323.15 K
x1 = 0.05237	359.49	361.46	363.6	365.89	368.28	370.79	373.41	376.07	378.83
x1 = 0.1014	351.13	353.16	355.31	357.53	359.81	362.28	364.84	367.48	370.16
x1 = 0.2008	334.84	336.79	338.81	340.93	343.08	345.47	347.87	350.35	352.88
x1 = 0.3039	318.47	320.33	322.17	324.17	326.18	328.38	330.63	332.93	335.27
x1 = 0.3945	304.32	305.98	307.85	309.6	311.52	313.55	315.68	317.86	320.07
x1 = 0.4983	288.13	289.64	291.34	293.02	294.78	296.69	298.58	300.38	302.59
x1 = 0.6014	271.74	273.2	274.79	276.35	277.97	279.71	281.49	283.32	285.18
x1 = 0.6987	256.4	257.78	259.23	260.76	262.21	263.83	265.47	267.13	268.85
x1 = 0.7975	240.83	242.08	243.45	244.78	246.18	247.69	249.17	250.73	252.27
x1 = 0.9021	224.47	225.7	226.92	228.16	229.39	230.74	232.08	233.47	234.85
x1 = 0.9497	217.25	218.41	219.54	220.73	221.9	223.14	224.4	225.7	227.02
x1 = 1	209.65	210.73	211.89	212.94	214.06	215.21	216.38	217.56	218.76

ClCCCCCCCl [1,6-dichlorohexane] + CCCCCCCCCCCC
molar heat capacity at constant pressure [J/K/mol]
Conditions	283.15 K	288.15 K	293.15 K	298.15 K	303.15 K	308.15 K	313.15 K	318.15 K	323.15 K
x1 = 0.0498	361.24	363.25	365.49	367.75	370.17	372.73	375.36	378.07	380.85
x1 = 0.1003	354.21	356.2	358.37	360.64	363.07	365.53	368.13	370.69	373.37
x1 = 0.1497	347.4	349.35	351.58	353.74	356.06	358.52	361.02	363.62	366.28
x1 = 0.2527	333.57	335.52	337.63	339.74	341.93	344.27	346.63	349.13	351.62
x1 = 0.4017	314.16	315.92	317.89	319.79	321.84	323.95	326.16	328.4	330.71
x1 = 0.502	301.12	302.83	304.61	306.46	308.39	310.38	312.43	314.57	316.72
x1 = 0.6	288.34	289.93	291.62	293.38	295.19	297.07	299.01	300.97	303.01
x1 = 0.7011	275.07	276.6	278.22	279.86	281.55	283.34	285.15	287	288.89
x1 = 0.7986	262.36	263.83	265.4	266.9	268.5	270.16	271.87	273.6	275.38
x1 = 0.8998	249.37	250.76	252.22	253.67	255.12	256.63	258.18	259.77	261.42
x1 = 0.9493	242.86	244.24	245.67	247.09	248.51	249.99	251.5	253.03	254.57
x1 = 0.9691	240.39	241.75	243.14	244.52	245.9	247.38	248.85	250.37	251.9
x1 = 1	236.59	237.9	239.26	240.6	241.94	243.37	244.81	246.28	247.76
